In data set [1] the test system is caterpillars of the armyworm (Spodoptera frugiperda). Put plainly: Spodoptera frugiperda test (SPODFR spray treatment). In kind it is in vivo. Particulars: Spodoptera frugiperda, foliar, read-out: effect in % (caterpillars killed). From the text: (§1) Solvent: 78.0 parts by weight of acetone
Data set [2] relates to larvae of the mustard beetle (Phaedon cochleariae). Put plainly: Phaedon test (PHAECO spray treatment). Particulars: Phaedon cochleariae, in Brassica rapa, foliar, read-out: effect in % (beetle larvae killed).
Data set [3] deals with green peach aphid (Myzus persicae). Put plainly: Myzus test (MYZUPE spray treatment). The format is in vivo. Particulars: Myzus persicae, foliar, read-out: effect in % (aphids killed).
Source text: Solvent: 78 parts by weight of acetone
as §1

Data set [4] can be described thus: log P determination by HPLC (EEC Directive 79/831 Annex V.A8). The format is physicochemical. Here is the method:
The measurements were carried out using an Agilent 1100 LC system with a 50*4.6 Zorbax Eclipse C18 1.8 μm column (oven temperature 55° C., flow rate 2.0 ml/min).
The following mobile phases were used:
Mobile phase A: acetonitrile+1000 μl of formic acid/l
Mobile phase B: Millipore water+900 μl of formic acid/l

[5] abbreviates: application rate 100 g/ha, maize leaf discs.
[6] abbreviates: application rate 100 g/ha, Chinese cabbage leaf discs.
Where [7] appears, read: reversed-phase HPLC, Zorbax Eclipse C18 column, determined by HPLC according to EEC Directive 79/831 Annex V.A8, read-out: log P.
The mark [8] stands for this setting: reversed-phase HPLC, Zorbax Eclipse C18 column, by HPLC according to EEC Directive 79/831 Annex V.A8, read-out: log P.

The structures appear in SMILES notation. Like-named read-outs stand apart in the source and are kept apart here. Some results are limits rather than exact numbers.

With `Cc1cc(C#N)cc(C(=O)NC(C)(C)C)c1NC(=O)c1cc(Cn2nnc(C(F)(F)C(F)(F)F)n2)nn1-c1ccccc1Cl` [Example 434], the pest or weed control at 100 g/ha in data set [1] (setting [5]), in data set [2] and in data set [3] (setting [6]) was at least 80% throughout. The chromatographic logP in data set [4] (setting [7]) amounted to 4.25.

On to `Cc1cc(Cl)cc(C(=O)NC2CC2)c1NC(=O)c1cc(Cn2nnnc2C(F)(F)C(F)(F)F)nn1-c1ncccc1Br` [Example 515], for which the pest or weed control at 100 g/ha in data set [1] (setting [5]), in data set [2] and in data set [3] (setting [6]) was at least 80% each time. In data set [4] (setting [7]), the chromatographic logP is 3.29.

Consider `Cc1cc(C#N)cc(C(=O)NC2CCC2)c1NC(=O)c1cc(Cn2nnc(C(F)F)n2)nn1-c1ncccc1Cl` [Example 270], for which the pest or weed control at 100 g/ha in data set [1] (in Zea mays), in data set [2] and in data set [3] (in Brassica rapa) was at least 80% each time. In addition, in data set [4] (log P), the chromatographic logP is 2.7.

With `CC(C)NC(=O)c1cc(Cl)cc(Cl)c1NC(=O)c1cc(Cn2nnc(C(F)F)n2)nn1-c1ncccc1Cl` [Example 286], the pest or weed control at 100 g/ha in data set [1] (in Zea mays), in data set [2] and in data set [3] (in Brassica rapa) was at least 80% throughout. This molecule yielded a chromatographic logP in data set [4] (log P) of 2.91.

For the molecule `CNC(=O)c1cc(S(C)(=O)=O)cc(C)c1NC(=O)c1cc(Cn2nnc(C(F)(F)F)n2)nn1-c1ccccc1Cl` [Example 441], the pest or weed control at 100 g/ha in data set [1] (setting [5]), in data set [2] and in data set [3] (setting [6]) was at least 80% each time. Also, the chromatographic logP in data set [4] (setting [7]) turned out to be 2.73.

Consider `Cc1cc(C#N)cc(C(=O)NC(C)(C)C)c1NC(=O)c1cc(Cn2nnnc2C(F)(F)F)nn1-c1ncccc1Cl` [Example 160], for which the pest or weed control at 100 g/ha in data set [1] (in Zea mays), in data set [2] and in data set [3] (in Brassica rapa) was at least 80% throughout. The chromatographic logP in data set [4] (log P) turned out to be 3.05.

Take `CNC(=O)c1cc(I)cc(C)c1NC(=O)c1cc(Cn2nnc(C(F)(F)F)n2)nn1-c1ncccc1Cl` [Example 65]: the pest or weed control at 100 g/ha in data set [1] (in Zea mays), in data set [2] and in data set [3] (in Brassica rapa) was at least 80% throughout. The chromatographic logP in data set [4] (log P) turned out to be 3.21.

Turning to `C#CC(C)NC(=O)c1cc(C#N)cc(C)c1NC(=O)c1cc(Cn2nnc(C(F)(F)F)n2)nn1-c1ncccc1Cl` (stereo not shown) [Example 432], the pest or weed control at 100 g/ha in data set [1] (in Zea mays), in data set [2] and in data set [3] (in Brassica rapa) was at least 80% each time. The same molecule displayed a chromatographic logP in data set [4] (log P) of 2.97.

Consider `Cc1cc(C#N)cc(C(=O)NC(C)C)c1NC(=O)c1cc(Cn2nnnc2C(F)(C(F)(F)F)C(F)(F)F)nn1-c1ncccc1Cl` [Example 500], for which the pest or weed control at 100 g/ha in data set [1] (setting [5]), in data set [2] and in data set [3] (setting [6]) was at least 80% each time. Besides, in data set [4] (setting [7]), the chromatographic logP came to 3.5.

For the molecule `CNC(=O)c1cc(I)cc(C)c1NC(=O)c1cc(Cn2nnnc2C(F)(F)F)nn1-c1ncccc1Br` [Example 506], the pest or weed control at 100 g/ha in data set [1] (setting [5]), in data set [2] and in data set [3] (setting [6]) was at least 80% in each case. Also, the chromatographic logP in data set [4] (setting [7]) came to 2.91.

Regarding `Cc1cc(Cl)cc(C(N)=O)c1NC(=O)c1cc(Cn2nnc(C(F)(F)F)n2)nn1-c1ncccc1C(F)(F)F` [Example 238], the pest or weed control at 100 g/ha in data set [1] (setting [5]), in data set [2] and in data set [3] (setting [6]) was at least 80% each time. Moreover, the chromatographic logP in data set [4] (setting [8]) came out at 2.97.

For `Cc1cc(Br)cc(C(=O)NCC#N)c1NC(=O)c1cc(Cn2nnc(C(F)(F)F)n2)nn1-c1ncccc1Cl` [Example 52], the pest or weed control at 100 g/ha in data set [1] (in Zea mays), in data set [2] and in data set [3] (in Brassica rapa) was at least 80% each time. The chromatographic logP in data set [4] (log P) stood at 3.02.

Take `Cc1cc(C#N)cc(C(=O)NC(C)C)c1NC(=O)c1cc(Cn2nnc(C(F)(F)F)n2)nn1-c1ccccc1Cl` [Example 341]: the pest or weed control at 100 g/ha in data set [1] (setting [5]), in data set [2] and in data set [3] (setting [6]) was at least 80% throughout. For the same molecule, the chromatographic logP in data set [4] (setting [8]) was 3.6.

In the case of `CSC[C@H](C)NC(=O)c1cc(Cl)cc(Cl)c1NC(=O)c1cc(Cn2nnc(C(F)(F)F)n2)nn1-c1ncccc1Cl` [Example 64], the pest or weed control at 100 g/ha in data set [1] (in Zea mays), in data set [2] and in data set [3] (in Brassica rapa) was at least 80% in each case. Further, the chromatographic logP in data set [4] (log P) is 3.62.

Consider `Cc1cc(C#N)cc(C(=O)NCC2CC2)c1NC(=O)c1cc(Cn2nnc(C(F)(F)F)n2)nn1-c1ccccc1Cl` [Example 440], for which the pest or weed control at 100 g/ha in data set [1] (setting [5]), in data set [2] and in data set [3] (setting [6]) was at least 80% in each case. Also, the chromatographic logP in data set [4] (setting [7]) was 3.61.

In the case of `Cc1cc(Cl)cc(C(=O)NCC#N)c1NC(=O)c1cc(Cn2nnnc2C(F)(F)F)nn1-c1ncccc1Br` [Example 486], the pest or weed control at 100 g/ha in data set [1] (setting [5]), in data set [2] and in data set [3] (setting [6]) was at least 80% throughout. The chromatographic logP in data set [4] (setting [7]) came out at 2.64.

With `Cc1cc(C#N)cc(C(N)=O)c1NC(=O)c1cc(Cn2nnc(C(F)(F)C(F)(F)F)n2)nn1-c1ncccc1Br` [Example 424], the pest or weed control at 100 g/ha in data set [1] (setting [5]), in data set [2] and in data set [3] (setting [6]) was at least 80% each time. Moreover, the chromatographic logP in data set [4] (setting [7]) was found to be 2.8.

Take `CC(C)NC(=O)c1cc(Cl)cc(Cl)c1NC(=O)c1cc(Cn2nnnc2C(F)F)nn1-c1ncccc1Cl` [Example 466]: the pest or weed control at 100 g/ha in data set [1] (in Zea mays), in data set [2] and in data set [3] (in Brassica rapa) was at least 80% in each case. Besides, the chromatographic logP in data set [4] (log P) was determined as 2.71.

As for `CCOCCNC(=O)c1cc(C#N)cc(C)c1NC(=O)c1cc(Cn2nnc(C(F)(F)F)n2)nn1-c1ncccc1Cl` [Example 211], the pest or weed control at 100 g/ha in data set [1] (in Zea mays), in data set [2] and in data set [3] (in Brassica rapa) was at least 80% each time. For the same molecule, in data set [4] (log P), the chromatographic logP turned out to be 2.99.

Consider `Cc1cc(C#N)cc(C(=O)NC(C)(C)C)c1NC(=O)c1cc(Cn2nnnc2C(F)(F)F)nn1-c1ccccc1C(F)(F)F` [Example 488], for which the pest or weed control at 100 g/ha in data set [1] (setting [5]), in data set [2] and in data set [3] (setting [6]) was at least 80% each time. For the same molecule, the chromatographic logP in data set [4] (setting [7]) came to 3.58.

Take `Cc1cc(I)cc(C(=O)NC(C)(C)C)c1NC(=O)c1cc(Cn2nnc(C(F)(F)F)n2)nn1-c1ncccc1C(F)(F)F` [Example 242]: the pest or weed control at 100 g/ha in data set [1] (setting [5]), in data set [2] and in data set [3] (setting [6]) was at least 80% in each case. The chromatographic logP in data set [4] (setting [8]) turned out to be 4.25.

For the molecule `Cc1cc(Br)cc(C(N)=O)c1NC(=O)c1cc(Cn2nnc(C(F)(F)F)n2)nn1-c1ncccc1Br` [Example 353], the pest or weed control at 100 g/ha in data set [1] (setting [5]), in data set [2] and in data set [3] (setting [6]) was at least 80% throughout. For the same molecule, the chromatographic logP in data set [4] (setting [8]) was 2.82.

Take `Cc1cc(C#N)cc(C(=O)NC(C)C)c1NC(=O)c1cc(Cn2nnc(C(F)(F)F)n2)nn1-c1ncccc1F` [Example 406]: the pest or weed control at 100 g/ha in data set [1] (setting [5]), in data set [2] and in data set [3] (setting [6]) was at least 80% in each case. Further, in data set [4] (setting [7]), the chromatographic logP is 2.88.

Turning to `Cc1cc(C#N)cc(C(=O)NC2CC2)c1NC(=O)c1cc(Cn2nnc(C(F)(F)F)n2)nn1-c1ncccc1Br` [Example 333], the pest or weed control at 100 g/ha in data set [1] (setting [5]), in data set [2] and in data set [3] (setting [6]) was at least 80% each time. In addition, the chromatographic logP in data set [4] (setting [8]) was determined as 2.85.

For the molecule `COCCNC(=O)c1cc(C#N)cc(C)c1NC(=O)c1cc(Cn2nnc(C(F)(F)F)n2)nn1-c1ncccc1Cl` [Example 92], the pest or weed control at 100 g/ha in data set [1] (in Zea mays), in data set [2] and in data set [3] (in Brassica rapa) was at least 80% each time. Moreover, in data set [4] (log P), the chromatographic logP came out at 2.73.

Take `Cc1cc(C#N)cc(C(=O)NOCC2CC2)c1NC(=O)c1cc(Cn2nnc(C(F)(F)F)n2)nn1-c1ncccc1Cl` [Example 397]: the pest or weed control at 100 g/ha in data set [1] (in Zea mays), in data set [2] and in data set [3] (in Brassica rapa) was at least 80% each time. For the same molecule, in data set [4] (log P), the chromatographic logP was 2.96.

For `Cc1cc(F)cc(C(=O)NC2CC2)c1NC(=O)c1cc(Cn2nnc(C(F)(F)F)n2)nn1-c1ncccc1Cl` [Example 27], the pest or weed control at 100 g/ha in data set [1] (in Zea mays), in data set [2] and in data set [3] (in Brassica rapa) was at least 80% each time. In data set [4] (log P), the chromatographic logP worked out at 2.87.

As to `Cc1cc(Cl)cc(C(=O)NCC#N)c1NC(=O)c1cc(Cn2nnc(C(F)(F)C(F)(F)C(F)(F)F)n2)nn1-c1ncccc1Cl` [Example 8], the pest or weed control at 100 g/ha in data set [1] (in Zea mays), in data set [2] and in data set [3] (in Brassica rapa) was at least 80% in each case. For the same molecule, the chromatographic logP in data set [4] (by HPLC according to EEC Directive 79/831 Annex V.A8, read-out: log P) was 3.65.

The values are drawn from patent publication US8324390B2, “Tetrazole-substituted anthranilamides as pesticides” (Bayer CropScience AG, priority 2008, dated 2012).
